In the NIST ThermoML archive (doi:10.1021/acs.jced.8b00438):

Test: xn = mol fraction of the nth substance listed
Conditions: 100 kPa, Liquid; for viscosity: Falling or rolling sphere viscometry; for mass density: Vibrating tube method

C1CCC(C2CCCCC2)CC1 [1,1'-bicyclohexyl] + CCCCO
Conditions | mass density [kg/m3] | viscosity [mPa·s]
293.15 K, x1 = 0.1007 | 823.66 | 2.853
293.15 K, x1 = 0.2009 | 835.23 | 2.878
293.15 K, x1 = 0.3021 | 845.04 | 2.902
293.15 K, x1 = 0.4007 | 853.19 | 2.957
293.15 K, x1 = 0.5038 | 860.51 | 3.002
293.15 K, x1 = 0.5992 | 866.48 | 3.096
293.15 K, x1 = 0.7006 | 872.11 | 3.227
293.15 K, x1 = 0.7983 | 877.03 | 3.418
293.15 K, x1 = 0.8835 | 880.86 | 3.575
293.15 K, x1 = 1 | 886.05 | 4.003
298.15 K, x1 = 0.1007 | 819.86 | 2.507
298.15 K, x1 = 0.2009 | 831.42 | 2.527
298.15 K, x1 = 0.3021 | 841.24 | 2.548
298.15 K, x1 = 0.4007 | 849.39 | 2.603
298.15 K, x1 = 0.5038 | 856.73 | 2.648
298.15 K, x1 = 0.5992 | 862.71 | 2.734
298.15 K, x1 = 0.7006 | 868.37 | 2.851
298.15 K, x1 = 0.7983 | 873.33 | 3.02
298.15 K, x1 = 0.8835 | 877.19 | 3.158
298.15 K, x1 = 1 | 882.44 | 3.53
303.15 K, x1 = 0.1007 | 816.02 | 2.214
303.15 K, x1 = 0.2009 | 827.58 | 2.232
303.15 K, x1 = 0.3021 | 837.4 | 2.254
303.15 K, x1 = 0.4007 | 845.56 | 2.306
303.15 K, x1 = 0.5038 | 852.92 | 2.353
303.15 K, x1 = 0.5992 | 858.93 | 2.431
303.15 K, x1 = 0.7006 | 864.61 | 2.539
303.15 K, x1 = 0.7983 | 869.6 | 2.689
303.15 K, x1 = 0.8835 | 873.49 | 2.807
303.15 K, x1 = 1 | 878.84 | 3.137
308.15 K, x1 = 0.1007 | 812.14 | 1.963
308.15 K, x1 = 0.2009 | 823.71 | 1.982
308.15 K, x1 = 0.3021 | 833.53 | 2.006
308.15 K, x1 = 0.4007 | 841.7 | 2.054
308.15 K, x1 = 0.5038 | 849.08 | 2.102
308.15 K, x1 = 0.5992 | 855.12 | 2.179
308.15 K, x1 = 0.7006 | 860.84 | 2.273
308.15 K, x1 = 0.7983 | 865.87 | 2.411
308.15 K, x1 = 0.8835 | 869.8 | 2.513
308.15 K, x1 = 1 | 875.25 | 2.81
313.15 K, x1 = 0.1007 | 808.22 | 1.749
313.15 K, x1 = 0.2009 | 819.81 | 1.767
313.15 K, x1 = 0.3021 | 829.63 | 1.793
313.15 K, x1 = 0.4007 | 837.81 | 1.84
313.15 K, x1 = 0.5038 | 845.22 | 1.881
313.15 K, x1 = 0.5992 | 851.3 | 1.957
313.15 K, x1 = 0.7006 | 857.05 | 2.048
313.15 K, x1 = 0.7983 | 862.13 | 2.17
313.15 K, x1 = 0.8835 | 866.09 | 2.262
313.15 K, x1 = 1 | 871.66 | 2.532
318.15 K, x1 = 0.1007 | 804.27 | 1.563
318.15 K, x1 = 0.2009 | 815.86 | 1.582
318.15 K, x1 = 0.3021 | 825.69 | 1.61
318.15 K, x1 = 0.4007 | 833.9 | 1.656
318.15 K, x1 = 0.5038 | 841.34 | 1.704
318.15 K, x1 = 0.5992 | 847.45 | 1.769
318.15 K, x1 = 0.7006 | 853.25 | 1.853
318.15 K, x1 = 0.7983 | 858.37 | 1.966
318.15 K, x1 = 0.8835 | 862.38 | 2.047
318.15 K, x1 = 1 | 868.08 | 2.296
323.15 K, x1 = 0.1007 | 800.27 | 1.402
323.15 K, x1 = 0.2009 | 811.87 | 1.423
323.15 K, x1 = 0.3021 | 821.71 | 1.452
323.15 K, x1 = 0.4007 | 829.95 | 1.498
323.15 K, x1 = 0.5038 | 837.43 | 1.545
323.15 K, x1 = 0.5992 | 843.58 | 1.608
323.15 K, x1 = 0.7006 | 849.43 | 1.685
323.15 K, x1 = 0.7983 | 854.6 | 1.789
323.15 K, x1 = 0.8835 | 858.66 | 1.863
323.15 K, x1 = 1 | 864.5 | 2.092
328.15 K, x1 = 0.1007 | 796.21 | 1.263
328.15 K, x1 = 0.2009 | 807.82 | 1.285
328.15 K, x1 = 0.3021 | 817.69 | 1.315
328.15 K, x1 = 0.4007 | 825.97 | 1.36
328.15 K, x1 = 0.5038 | 833.49 | 1.407
328.15 K, x1 = 0.5992 | 839.69 | 1.466
328.15 K, x1 = 0.7006 | 845.59 | 1.54
328.15 K, x1 = 0.7983 | 850.82 | 1.635
328.15 K, x1 = 0.8835 | 854.93 | 1.702
328.15 K, x1 = 1 | 860.93 | 1.915
333.15 K, x1 = 0.1007 | 792.1 | 1.141
333.15 K, x1 = 0.2009 | 803.73 | 1.164
333.15 K, x1 = 0.3021 | 813.63 | 1.196
333.15 K, x1 = 0.4007 | 821.94 | 1.24
333.15 K, x1 = 0.5038 | 829.52 | 1.286
333.15 K, x1 = 0.5992 | 835.77 | 1.342
333.15 K, x1 = 0.7006 | 841.73 | 1.411
333.15 K, x1 = 0.7983 | 847.02 | 1.499
333.15 K, x1 = 0.8835 | 851.2 | 1.562
333.15 K, x1 = 1 | 857.35 | 1.762
